Results published in patent publication US20190111059A1, “COMPOSITIONS AND METHODS FOR TREATING AUTISM SPECTRUM DISORDER” (Marinus Pharmaceuticals, Inc., priority 2017, published 2019).
Where a name gives a salt, the structure may show the parent alone.

Test system: children with non-syndromic autism spectrum disorder (ASD) and language impairment
Assay: Randomized double-blind placebo-controlled trial: verbal communication (CELF-preschool-2, CELF-4, PLS-5), primary outcome
Format: in vivo, human
Settings: for Verbal communication, effect size (Cohen's d) / Verbal communication, estimated effect vs placebo / Verbal communication, 12 weeks: 2 mg kg^−1 per day; for Verbal communication, effect size (Cohen's d) / Verbal communication, estimated effect vs placebo / % Difference responders (folinic acid vs placebo) / Adjusted odds ratio of response / Number needed to treat / Unadjusted odds ratio of response / % responders / Number of responders (increase in five standardized points, verbal communication): 12 weeks; for Verbal communication, estimated effect vs placebo: mixed-model regression
Protocol: We sought to determine whether high-dose folinic acid improves verbal communication in children with non-syndromic autism spectrum disorder (ASD) and language impairment in a double-blind placebo control setting. Forty-eight children (mean age 7 years 4 months; 82% male) with ASD and language impairment were randomized to receive 12 weeks of high-dose folinic acid (2 mg kg^-1 per day, maximum 50 mg per day; n=23) or placebo (n=25). Children were subtyped by glutathione and folate receptor-α autoantibody (FRAA) status. […] FRAA status was predictive of response to treatment. […] 2012 to 22 Nov. 2013. Participants who met inclusion and exclusion criteria were screened for language impairment. Preverbal (<25 functional words) children qualified as language impaired. Otherwise, the age-appropriate version of the Clinical Evaluation of Language Fundamentals (CELF) confirmed language impairment. Language impairment was defined as a core standardized score<85 if the preschool version was used or failure on the CELF screener if other versions were used. Those confirmed to have language impairment were randomized to the folinic acid or placebo group and a fasting blood sample was obtained. Randomization was performed using a random number generator with a block size of four. The research pharmacists had exclusive access to the randomization allocation. After breakfast, the participants returned for language, developmental and behavioral assessments. Following these assessments the family was given the 12 weeks of the intervention and was instructed on its administration. Language, developmental and behavioral assessments were repeated after 12 weeks of treatment. The target dose of the intervention (INN: DL folinic acid calcium salt; USAN: leucovorin calcium) was 2 mg kg^-1 per day (maximum 50 mg per day) in two equally divided doses with half of the target dose given during the first 2 weeks. Dye-free, milk-product-free, vegetarian capsules were provided in three strengths (5, 10 and 25 mg) by Lee Silsby Compounding Pharmacy (Cleveland Heights, Ohio, USA). Certificate of analysis was provided for each capsule strength by an independent analytical service (Eagle Analytical Services, Houston, Tex., USA) for each batch of capsules produced. In all cases, potency was at least 99%. Primary outcome. Verbal communication was the primary outcome for several reasons. First, verbal communication improved in preliminary folinic acid treatment studies. Second, verbal communication in children with ASD is closely linked to parental quality of life. Third, the development of language and communication skills is associated with favorable outcomes. Instruments used were the CELF-preschool-2, CELF-4 and the Preschool Language Scale-5 (PLS-5). The standardized summary score of each instrument (mean 100, standard deviation 15) was the primary outcome measure and ranges from 50 to 150 for the PLS-5 and 45 to 155 for the CELF. The ability-appropriate instrument was selected using a structured algorithm. The goal was to select an instrument with an adequate dynamic range for assessing improvement in verbal communication. The assessment started with the most age-appropriate instrument. If the child obtained a score at the floor, the next lower ability instrument was then used. This process was repeated until a score above the floor could be obtained. The score from the final instrument was the primary outcome measure at baseline and at trial end. If the child's age exceeded the maximum age of the instrument's standardization, the maximum standardized age was used. At trial end, all instruments used during the baseline assessment were repeated in the same order to simulate the same baseline assessment experience and to minimize a potential confounder of cognitive fatigue. Studies have shown that early behavioral therapy improves verbal communication by one-standard deviation over 36 weeks. […]

[1] = antibody negative, folinic acid N = 10
[2] = antibody positive, folinic acid N = 13
[3] = glutathione high, folinic acid N = 14
[4] = glutathione low, folinic acid N = 9

SMILES: Nc1nc2c(c(=O)[nH]1)N(C=O)C(CNc1ccc(C(=O)N[C@@H](CCC(=O)O)C(=O)O)cc1)CN2 (mixture of isomers) [Folinic acid, DL folinic acid calcium salt]
- Verbal communication, effect size (Cohen's d) (FRAA antibody negative N=17): 0.30
- Verbal communication, estimated effect vs placebo (FRAA antibody negative N=17, calcium salt): 2.5 standardized score
- Verbal communication, estimated effect vs placebo (FRAA antibody negative N=17, listed as folinic acid, calcium salt): not significantly different
- Verbal communication, effect size (Cohen's d) (FRAA antibody positive N=31): 0.91
- Verbal communication, estimated effect vs placebo (FRAA antibody positive N=31, calcium salt): 7.3 standardized score
- Verbal communication, effect size (Cohen's d) (glutathione redox ratio high N=24): 0.46
- Verbal communication, estimated effect vs placebo (glutathione redox ratio high N=24, calcium salt): 3.0 standardized score
- Verbal communication, estimated effect vs placebo (glutathione redox ratio high N=24, listed as folinic acid, calcium salt): not significantly different
- Verbal communication, effect size (Cohen's d) (glutathione redox ratio low N=24): 0.95
- Verbal communication, estimated effect vs placebo (glutathione redox ratio low N=24, calcium salt): 9.1 standardized score
- Verbal communication, estimated effect vs placebo (glutathione redox ratio low N=24, listed as folinic acid, calcium salt): significantly greater
- Verbal communication, effect size (Cohen's d) (overall N=48): 0.70
- Verbal communication, estimated effect vs placebo (overall N=48, calcium salt): 5.7 standardized score
- Verbal communication, 12 weeks (FRAA antibody negative, baseline 57.9): 64.5 standardized score
- Verbal communication, 12 weeks (FRAA antibody positive, baseline 58.1): 66.1 standardized score
- Verbal communication, 12 weeks (glutathione redox ratio high, baseline 59.2): 65.0 standardized score
- Verbal communication, 12 weeks (glutathione redox ratio low, baseline 56.1): 66.0 standardized score
- Verbal communication, 12 weeks (overall, baseline 58.1): 65.4 standardized score
- % Difference responders (folinic acid vs placebo) (antibody negative): 21%
- Adjusted odds ratio of response (antibody negative): 3.6
- Number needed to treat (antibody negative): 4.7
- Unadjusted odds ratio of response (antibody negative): 2.5
- % responders [1]: 50%
- Number of responders (increase in five standardized points, verbal communication) [1]: 5
- % Difference responders (folinic acid vs placebo) (antibody positive): 55% (19%,
- Adjusted odds ratio of response (antibody positive): 67.4
- Number needed to treat (antibody positive): 1.8
- Unadjusted odds ratio of response (antibody positive): 11.7
- % responders [2]: 77%
- Number of responders (increase in five standardized points, verbal communication) [2]: 10
- % Difference responders (folinic acid vs placebo) (glutathione high): 34% (−4%,
- Adjusted odds ratio of response (glutathione high): 21.9
- Number needed to treat (glutathione high): 2.9
- Unadjusted odds ratio of response (glutathione high): 4.2
- % responders [3]: 64%
- Number of responders (increase in five standardized points, verbal communication) [3]: 9
- % Difference responders (folinic acid vs placebo) (glutathione low): 47% (10%,
- Adjusted odds ratio of response (glutathione low): 10.2
- Number needed to treat (glutathione low): 2.1
- Unadjusted odds ratio of response (glutathione low): 8.0
- % responders [4]: 67%
- Number of responders (increase in five standardized points, verbal communication) [4]: 6
- Adjusted odds ratio of response (overall): 14.9
- Number needed to treat (overall): 2.4
- Unadjusted odds ratio of response (overall): 5.9
- % responders (overall, folinic acid N = 23): 65%
- Number of responders (increase in five standardized points, verbal communication) (overall, folinic acid N = 23): 15
- % Difference responders (folinic acid vs placebo) (overall, calcium salt): 41% (13%,
- % Difference responders (folinic acid vs placebo) (overall, listed as folinic acid, calcium salt): significantly more responders
